Assay results published in US4994472A, “1-(pyridinylamino)-2-pyrrolidinones as pain relievers” (Hoechst-Roussel Pharmaceuticals Incorporated, priority 1989, dated 1991).

Tests used:
[1] = tested on: Scopolamine Induced Memory Deficit; test: Dark Avoidance Assay (reversal of scopolamine induced memory deficit); type: in vivo; settings: mice, retest after 24 hours
Procedure: In this assay, mice are tested for their ability to remember an unpleasant stimulus for a period of 24 hours. A mouse is placed in a chamber that contains a dark compartment; a strong incandescent light drives it to the dark compartment, where an electric shock is administered through metal plates on the floor. The animal is removed from the testing apparatus and tested again, 24 hours later, for the ability to remember the electric shock. If scopolamine, an anticholinergic that is known to cause memory impairment, is administered before an animal's initial exposure to the test chambers, the animal re-enters the dark compartment shortly after being placed in the test chamber 24 hours later. The effect of scopolamine is blocked by an active test compound, resulting in a greater interval before re-entry into the dark compartment. The results for an active compound are expressed as the percent of a group of animals in which the effect of scopolamine is blocked, as manifested by an increased interval between being placed in the test chamber and re-entering the dark compartment. The activity in the assay of some of the compounds of the invention are given below in Table 2.

[2] = tested on: phenyl-para-quinone induced writhing; test: phenyl-para-quinone writhing assay in mice (analgesia); type: in vivo; settings: 20 mg/kg s.c., expressed as % decrease in writhing
Text: Exptl. […] Presented in Table I is the analgesic effect of one of the compounds of the invention expressed as the % decrease in writhing at a given dose.

`Nc1c2c(nc3ccccc13)CCCC2` [Tacrine, reference compound] was tested, and the “% of Animals With Scopolamine Induced Memory Deficit Reversal” value ([1]; .63 (mg/kg of body wt) s.c.) was 13%.
For `O=C1CCCN1Nc1ccncc1` [1-(4-pyridinylamino)-2-pyrrolidinone, 1-(4-Pyridinylamino)-2-pyrrolidinone], the “% Inhibition of Writhing” value [2] was -56%.
In the case of `CCCN(c1ccncc1)N1CCCC1=O.O=C(O)C(=O)O` [1-(Propyl-4-pyridinylamino)-2-pyrrolidinone oxalate], the “% of Animals With Scopolamine Induced Memory Deficit Reversal” value ([1]; .3 mg/kg s.c.) is reported as 33%.
